Assay results as given in publication PMC8151276, “An Integrated Approach toward NanoBRET Tracers for Analysis of GPCR Ligand Engagement” (Molecules, 2021).

How the values were obtained:
DRD1 = biological target: T1, DRD1 (Homo sapiens, UniProt P21728); test: NanoBRET screen HiBiT-DRD1 in HEK293; format: binding
T1 construct: purchased Promega (in-house HiBiT-GPCR construct library, NanoBRET)
Procedure: (§1) Each tracer candidate was screened across the entire library of HiBiT-GPCR constructs using NanoBRET as the detection modality. As depicted in Figure 4A, the specificity of interactions was evaluated through decrease in BRET due to competitive displacement of a bound tracer by excess parental compound. Each tracer was analyzed for binding to each HiBiT-GPCR fusion in the absence and in the presence of competing parental compound. Briefly, HEK293 cells were transfected with HiBiT-GPCR constructs diluted into promoterless DNA to reduce expression and maximize translocation to the cell surface. Each tracer candidate was then screened at concentrations of 1 μM and 0.1 μM across cells expressing these fusions. Cells were treated for 1.5 h with tracer either alone or in the presence of 20 μM competing parental compound (i.e., control). BRET was measured upon addition of purified LgBiT and subsequent complementation with HiBiT genetically fused to a GPCR. The specificity of interactions was assessed through a decrease in BRET signal due to competitive displacement of the bound tracer. To further gauge the robustness of these interactions, the fold response over the control (i.e., BRETtracer/BRETcontrol) was calculated. We chose a 1.5-fold response, which translates to ≥7-fold signal over noise as the minimal threshold required to score an interaction as positive.
(§2) HiBiT-GPCR DNA constructs were diluted in 10 mM Tris pH 8 to a final concentration of 0.01 μg/μL, arrayed in 96-well plates and stored at −20 °C. For transfection, HEK293 cells were suspended in Opti-MEM (without phenol red) supplemented with 2% fetal bovine serum (Seradigm) and 100 units/mL penicillin–streptomycin (Gibco) at a final concentration of 220,000 cells/mL and dispensed into white 96-well plates at 90 μL/well. Subsequent transfections and screens were carried using an Agilent Bravo Automated Liquid Handling Platform. First, the 96-well HiBiT DNA arrays were diluted 25-fold in Opti-MEM (without serum or phenol red) to a final concentration of 0.0004 μg/μL and 20 μL of the diluted DNAs were transferred into new 96-well plates. Next, promoterless carrier DNA (1 μg/μL) was diluted 25-fold (0.04 μg/μL) and then dispensed into the diluted arrays at 20 μL/well. Following brief mixing, Viafect transfection reagent (Promega) diluted 16-fold into Opti-MEM was dispensed into the plates at 40 μL/well. After mixing by pipetting, plates were incubated for 10 min on the pipetting station deck. The DNA-transfection reagent complexes were then added to plates containing cells. To facilitate the screen, 10 μL of DNA-transfection reagent complexes were added in duplicates to the top 4 and bottom 4 rows, resulting in two identical 48-well arrays per plate. Plates with transfected cells were incubated for 18–20 h at 37 °C/5% CO2. A screen of each tracer across the entire library using two different concentrations requires duplicate plates of transfected cells. Depending on the number of tracers being screened, transfections can be scaled up using the same ratios. The next day, for each tracer, four 20× screening solutions in tracer dilution buffer (Promega) were prepared: two duplicates at final concentration of 20 μM and two duplicates at a final concentration of 2 μM. […] The four resulting solutions were diluted 4-fold in Opti-MEM without serum or phenol red to generate 5× solutions (5 µM and 0.5 µM tracer +/− 100 μM competing compound). To screen the library, a BioTek MultiFlo FX liquid dispenser was used to dispense 22.5 µL of tracer solution to the top 4 rows and 22.5 µL tracer + competing compound solution to the 4 bottom rows. Plates were briefly mixed on an orbital shaker and incubated for 1.5 h at room temperature. […] Plates were briefly mixed on an orbital shaker and incubated for 15 min to allow complementation.

ADORA2A = biological target: T2, ADORA2A (Homo sapiens, UniProt P29274); test: NanoBRET screen HiBiT-ADORA2A in HEK293; format: binding
T2 construct: purchased Promega (in-house HiBiT-GPCR construct library, NanoBRET)
T2 sequence (P29274 whole entry): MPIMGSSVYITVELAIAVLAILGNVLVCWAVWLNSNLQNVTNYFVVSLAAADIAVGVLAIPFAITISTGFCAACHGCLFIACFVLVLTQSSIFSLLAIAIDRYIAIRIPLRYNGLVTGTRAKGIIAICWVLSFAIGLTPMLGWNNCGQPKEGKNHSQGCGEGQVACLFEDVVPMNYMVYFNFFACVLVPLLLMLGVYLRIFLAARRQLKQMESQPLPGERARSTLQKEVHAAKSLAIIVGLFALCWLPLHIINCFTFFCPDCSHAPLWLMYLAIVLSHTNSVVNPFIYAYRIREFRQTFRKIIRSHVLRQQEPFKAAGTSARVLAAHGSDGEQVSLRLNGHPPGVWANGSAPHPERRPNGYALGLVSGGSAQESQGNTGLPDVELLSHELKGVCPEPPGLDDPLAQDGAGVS
Procedure: as §1, §2

[1] = tracer at 0.1μM, listed as amitriptyline-b-2-NB590
[2] = tracer at 1μM, listed as amitriptyline-b-2-NB590

T1 sequence (P21728 whole entry): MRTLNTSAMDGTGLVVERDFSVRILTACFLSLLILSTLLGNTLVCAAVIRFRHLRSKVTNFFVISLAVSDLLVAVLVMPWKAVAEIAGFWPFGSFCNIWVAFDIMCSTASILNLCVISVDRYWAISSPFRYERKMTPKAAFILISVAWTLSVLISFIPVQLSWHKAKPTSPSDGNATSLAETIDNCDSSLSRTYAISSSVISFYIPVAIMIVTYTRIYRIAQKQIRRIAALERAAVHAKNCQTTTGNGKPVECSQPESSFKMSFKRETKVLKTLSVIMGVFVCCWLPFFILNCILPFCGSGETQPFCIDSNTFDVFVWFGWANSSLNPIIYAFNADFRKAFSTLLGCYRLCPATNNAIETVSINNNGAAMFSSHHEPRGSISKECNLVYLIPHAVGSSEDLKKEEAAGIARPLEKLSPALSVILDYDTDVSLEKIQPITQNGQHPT

Structure (SMILES) | NanoBRET Fold Response (DRD1; DRD1, tracer 0.1μM) | NanoBRET Fold Response (DRD1; DRD1, tracer 1μM) | NanoBRET Fold Response (ADORA2A; ADORA2A, tracer 0.1μM) | NanoBRET Fold Response (ADORA2A; ADORA2A, tracer 1μM) | further results
CCOC(=O)c1cc(C#N)c(N2CCC(C(=O)NS(=O)(=O)Cc3ccccc3/C=C/C(=O)NCCNC(=O)CCc3ccc4n3[B-](F)(F)[N+]3=C(c5ccc[nH]5)C=CC3=C4)CC2)nc1C [AZD1283-1-NB590] |  |  |  |  | NanoBRET Fold Response (DRD1; DRD1, 0.1μM): 1.07; NanoBRET Fold Response (DRD1; DRD1, 1μM): 1.10; NanoBRET Fold Response (ADORA2A; ADORA2A, 0.1μM): 1.06; NanoBRET Fold Response (ADORA2A; ADORA2A, 1μM): 1.04
N#CN/C(=N\CCNC(=O)c1ccc(N)cc1)NCCCOc1cccc(CN2CCCCC2)c1 [Aminopotentidine (unmodified)] |  |  |  |  | NanoBRET Fold Response (DRD1; DRD1, other tracers/Aminopotentidine (unmodified), 0.1μM): 1.10; NanoBRET Fold Response (DRD1; DRD1, other tracers/Aminopotentidine (unmodified), 1μM): 1.11
N#CN=C(NCCCOc1cccc(CN2CCCCC2)c1)NCCNC(=O)CCOCCOCCOCCOCCNC(=O)CCc1ccc2n1[B-](F)(F)[N+]1=C(c3ccc[nH]3)C=CC1=C2 [Aminopotentidine-2-NB590] | 1.04 | 1.06 | 1.05 | 0.99 | 
CN(C)CCC=C1c2ccccc2CCc2ccc(C(=O)NCCNC(=O)CCOCCOCCOCCOCCNC(=O)CCc3ccc4n3[B-](F)(F)[N+]3=C(c5ccc[nH]5)C=CC3=C4)cc21 [Amitriptyline-a-2-NB590] |  |  |  |  | NanoBRET Fold Response (DRD1; tracer at 0.1μM): 1.04; NanoBRET Fold Response (DRD1; tracer at 1μM): 1.23; NanoBRET Fold Response (ADORA2A; tracer at 0.1μM): 1.02; NanoBRET Fold Response (ADORA2A; tracer at 1μM): 1.07
CN(C)CCC=C1c2ccccc2CCc2ccc(C(=O)NCCNC(=O)CCOCCOCCOCCOCCNC(=O)CCc3ccc4n3[B-](F)(F)[N+]3=C(c5ccc[nH]5)C=CC3=C4)cc21 [Amitriptyline-b-2-NB590] |  |  |  |  | NanoBRET Fold Response (DRD1; [1]): 1.39; NanoBRET Fold Response (DRD1; [2]): 1.97; NanoBRET Fold Response (ADORA2A; [1]): 1.07; NanoBRET Fold Response (ADORA2A; [2]): 1.20
CN(CCC=C1c2ccccc2CCc2ccccc21)C(=O)CCOCCOCCOCCOCCNC(=O)CCc1ccc2n1[B-](F)(F)[N+]1=C(c3ccc[nH]3)C=CC1=C2 [Amitriptyline-e-2-NB590] |  |  |  |  | NanoBRET Fold Response (DRD1; tracer at 1μM): 1.12; NanoBRET Fold Response (ADORA2A; tracer at 1μM): 1.07
COc1ccc2c(n1)c(CCNC(C)=O)cn2CCNC(=O)CCc1ccc2n1[B-](F)(F)[N+]1=C(c3ccc[nH]3)C=CC1=C2 [Azamelatonin-1-NB590] |  |  |  |  | NanoBRET Fold Response (DRD1; 0.1μM tracer): 0.92; NanoBRET Fold Response (DRD1; 1μM tracer): 0.96; NanoBRET Fold Response (ADORA2A; 0.1μM tracer): 0.87; NanoBRET Fold Response (ADORA2A; 1μM tracer): 0.92
COc1ccc2[nH]c(-c3ccc(CNC(=O)CCOCCOCCOCCOCCNC(=O)CCc4ccc5n4[B-](F)(F)[N+]4=C(c6ccc[nH]6)C=CC4=C5)cc3)c(CCNC(C)=O)c2n1 [AzomelatoninICO9-2-NB590] |  |  |  |  | NanoBRET Fold Response (DRD1; 0.1μM tracer): 0.98; NanoBRET Fold Response (DRD1; 1μM tracer): 0.94; NanoBRET Fold Response (ADORA2A; 0.1μM tracer): 1.16; NanoBRET Fold Response (ADORA2A; 1μM tracer): 0.82
O=C(CCOCCOCCOCCOCCNC(=O)CCc1ccc2n1[B-](F)(F)[N+]1=C(c3ccc[nH]3)C=CC1=C2)NCCCN1CCN(C2=Nc3cc(Cl)ccc3Nc3ccccc32)CC1 [Clozapine-a-2-NB590] |  |  |  |  | NanoBRET Fold Response (DRD1; DRD1, 0.1μM tracer): 3.20; NanoBRET Fold Response (DRD1; DRD1, 1μM tracer): 3.32; NanoBRET Fold Response (ADORA2A; ADORA2A, 0.1μM tracer): 0.95; NanoBRET Fold Response (ADORA2A; ADORA2A, 1μM tracer): 0.89
CN1CCN(C2=Nc3cc(Cl)ccc3Nc3ccc(CNC(=O)CCOCCOCCOCCOCCNC(=O)CCc4ccc5n4[B-](F)(F)[N+]4=C(c6ccc[nH]6)C=CC4=C5)cc32)CC1 [Clozapine-b-2-NB590] |  |  |  |  | NanoBRET Fold Response (ADORA2A; ADORA2A, 0.1μM tracer): 0.97; NanoBRET Fold Response (ADORA2A; ADORA2A, 1μM tracer): 1.00
CN1CCN(C2=Nc3cc(Cl)ccc3N(CC(=O)NCCOCCOCCOCCOCCNC(=O)CCc3ccc4n3[B-](F)(F)[N+]3=C(c5ccc[nH]5)C=CC3=C4)c3ccccc32)CC1 [Clozapine-c-2-NB590] |  |  |  |  | NanoBRET Fold Response (ADORA2A; ADORA2A, 0.1μM tracer): 1.01; NanoBRET Fold Response (ADORA2A; ADORA2A, 1μM tracer): 0.94
O=C(CCOCCOCCOCCOCCNC(=O)CCc1ccc2n1[B-](F)(F)[N+]1=C(c3ccc[nH]3)C=CC1=C2)NCCCN1CCN(C2=Nc3ccccc3Oc3ccc(Cl)cc32)CC1 [Loxapine-a-2-NB590] | 1.65 | 2.64 | 1.08 | 1.11 | 
COc1ccccc1N1CCN(CCCCN2C(=O)c3ccc(CNC(=O)CCOCCOCCOCCOCCNC(=O)CCc4ccc5n4[B-](F)(F)[N+]4=C(c6ccc[nH]6)C=CC4=C5)cc3C2=O)CC1 [NAN-190-2-NB590] | 1.23 | 1.53 | 1.02 |  | 
COc1ccccc1N1CCN(CCCCN2C(=O)c3ccc(CNC(=O)CCOCCNC(=O)c4ccc(CNC(=O)CCc5ccc6n5[B-](F)(F)[N+]5=C(c7ccc[nH]7)C=CC5=C6)cc4)cc3C2=O)CC1 [NAN-190-3-NB590] | 1.75 | 1.32 | 1.00 | 0.91 | 
O=C(CCc1ccc2n1[B-](F)(F)[N+]1=C(c3ccc[nH]3)C=CC1=C2)NCc1ccc(C(=O)NCCOCCC(=O)N[C@@H]2CC[C@@]3(O)[C@H]4Cc5ccc(O)c6c5[C@@]3(CCN4CC3CC3)[C@H]2O6)cc1 [Naltrexone-3-NB590] | 0.98 | 1.03 | 1.08 | 0.58 | 
Cc1cc2c(s1)Nc1ccccc1N=C2N1CCN(CCCNC(=O)CCOCCOCCOCCOCCNC(=O)CCc2ccc3n2[B-](F)(F)[N+]2=C(c4ccc[nH]4)C=CC2=C3)CC1 [Olanzapine-a-2-NB590] | 2.04 | 3.08 | 0.97 | 0.93 | 
O=C(CCc1ccc2n1[B-](F)(F)[N+]1=C(c3ccc[nH]3)C=CC1=C2)NCc1ccc(C(=O)NCCOCCOCCNCC(O)COc2cccc3ccccc23)cc1 (stereo not shown) [Propranolol-3-NB590] |  |  |  |  | NanoBRET Fold Response (DRD1; DRD1, 0.1μM): 1.01; NanoBRET Fold Response (DRD1; DRD1, 1μM): 0.98; NanoBRET Fold Response (ADORA2A; ADORA2A, 0.1μM): 1.05; NanoBRET Fold Response (ADORA2A; ADORA2A, 1μM): 0.99
O=C(CCc1ccc2n1[B-](F)(F)[N+]1=C(c3ccc[nH]3)C=CC1=C2)NCCOCCOCCNC(=O)OCCOCCN1CCN(C2=Nc3ccccc3Sc3ccccc32)CC1 [Quetiapine-a-2-NB590] | 1.65 | 1.97 | 0.99 | 0.91 | 
Cc1nc2n(c(=O)c1CCN1CCC(c3noc4cc(F)ccc34)CC1)CCCC2OC(=O)NCCOCCOCCOCCOCCNC(=O)CCc1ccc2n1[B-](F)(F)[N+]1=C(c3ccc[nH]3)C=CC1=C2 (stereo not shown) [Risperidone-2-NB590] | 2.20 | 2.38 | 0.98 | 0.98 | 
CC(C)N(CC[C@H](c1ccccc1)c1cc(CCNC(=O)CCOCCOCCOCCOCCNC(=O)CCc2ccc3n2[B-](F)(F)[N+]2=C(c4ccc[nH]4)C=CC2=C3)ccc1O)C(C)C [Tolterodine-2-NB590] | 0.94 | 1.01 | 1.35 | 0.95 | 
CC(C)N(CC[C@H](c1ccccc1)c1cc(CCNC(=O)c2ccc(CNC(=O)CCc3ccc4n3[B-](F)(F)[N+]3=C(c5ccc[nH]5)C=CC3=C4)cc2)ccc1O)C(C)C [Tolterodine-BZ-NB590] | 1.28 | 1.39 | 1.00 | 1.01 | 
CCCn1c(=O)c2[nH]c(-c3ccc(OCC(=O)NCCNC(=O)CCOCCNC(=O)c4ccc(CNC(=O)CCc5ccc6n5[B-](F)(F)[N+]5=C(c7ccc[nH]7)C=CC5=C6)cc4)cc3)nc2n(CCC)c1=O [XAC-3-NB590] | 0.90 | 1.11 | 7.87 | 9.18 | 
